Reference: patent US12036312B2, “Non-aqueous topical compositions comprising a halogenated salicylanilide” (priority 2016, dated 2024)
≈ marks a conversion by molar mass, not a printed value.

Test system: S. aureus
Assay: MIC assay according to CLSI criteria, Example 2, S. aureus strains
Type: cell-based, Staphylococcus aureus
Conditions: Staphylococcus aureus
Excerpt: Chosen for its relevance regarding bacterial skin infections, the methicillin-resistant S. aureus (MRSA) 01 strain was used as the primary test microorganism. This strain is a community-acquired MRSA clinical isolate of USA 300 type, from a skin abscess.
Two-hundred-four other MRSA and methicillin-sensitive S. aureus strains, and 4 Streptococcus pyogenes strains, were also included in the study. These covered fusidic acid- and mupirocin-resistant strains, these two types of resistance being of clinical relevance.
Strains were conserved in Luria Bertani (LB) Broth (S. aureus) or Brain Heart Infusion (BHI) (S. pyogenes) supplemented with glycerol 15% (v/v) at −80° C., and reactivated by isolation on LB (S. aureus) or BHI (S. pyogenes) agar plates. Strains were cultivated in Mueller Hinton (MH) Broth-cation adjusted (S. aureus) or BHI (S. pyogenes). All strains were cultivated aerobically (microaerobically for S. pyogenes strains) at 37° C.
Bacterial cultures were stopped in their exponential growth phase and plates were inoculated with the approximate concentration of 5×10^5 cells per well. Plates were incubated at 37° C. for 18 hours (S. aureus) or 24 hours (S. pyogenes). Optical density at a wavelength of 600 nm was measured at the end of the incubation time.

With `CN[C@H](CC(C)C)C(=O)N[C@H]1C(=O)N[C@@H](CC(N)=O)C(=O)N[C@H]2C(=O)N[C@H]3C(=O)N[C@H](C(=O)N[C@H](C(=O)O)c4cc(O)cc(O)c4-c4cc3ccc4O)[C@H](O)c3ccc(c(Cl)c3)Oc3cc2cc(c3O[C@@H]2O[C@H](CO)[C@@H](O)[C@H](O)[C@H]2O[C@H]2C[C@](C)(N)[C@H](O)[C@H](C)O2)Oc2ccc(cc2Cl)[C@H]1O` [Vancomycin, vancomycin] the MIC (MRSA, strain MRSA 102) was 2 µg/mL (≈ 1.38 µM), the MIC (MRSA, strain MRSA 103) was 1 µg/mL (≈ 0.69 µM) and the MIC (MRSA, strain MRSA 104) was 1 µg/mL (≈ 0.69 µM). It also gave an MIC (MRSA, strain MRSA 105) of 1 µg/mL (≈ 0.69 µM), an MIC (MRSA, strain MRSA 106) of 1 µg/mL (≈ 0.69 µM) and an MIC (MRSA, strain MRSA 107) of 2 µg/mL (≈ 1.38 µM). For the same molecule, the MIC (MRSA, strain MRSA 108) was 1 µg/mL (≈ 0.69 µM), the MIC (MRSA, strain MRSA 109) was 1 µg/mL (≈ 0.69 µM) and the MIC (MRSA, strain MRSA 110) was 1 µg/mL (≈ 0.69 µM). For the same molecule, the MIC (MRSA, strain MRSA 111) was 1 µg/mL (≈ 0.69 µM), the MIC (MRSA, strain MRSA 112) was 1 µg/mL (≈ 0.69 µM) and the MIC (MRSA, strain MRSA 113) was 1 µg/mL (≈ 0.69 µM). For the same molecule, the MIC (MSSA, strain MSSA 01) was 1 µg/mL (≈ 0.69 µM), the MIC (MSSA, strain MSSA 02) was 1 µg/mL (≈ 0.69 µM) and the MIC (NEWMAN, strain Newman) was 2 µg/mL (≈ 1.38 µM). For the same molecule, the MIC (strain 9-1862936) was 1 µg/mL (≈ 0.69 µM), the MIC (strain 9-2625962) was 1 µg/mL (≈ 0.69 µM) and the MIC (strain 9-2642158) was 1 µg/mL (≈ 0.69 µM). It also gave an MIC (strain 9-2955245) of 1 µg/mL (≈ 0.69 µM), an MIC (strain 9-26422166) of 1 µg/mL (≈ 0.69 µM) and an MIC (strain 000040C) of 1 µg/mL (≈ 0.69 µM). It also gave an MIC (strain 000041C) of 1 µg/mL (≈ 0.69 µM), an MIC (strain 000274T) of 1 µg/mL (≈ 0.69 µM) and an MIC (strain 114660U) of 1 µg/mL (≈ 0.69 µM). The MIC (strain 115015T) was 2 µg/mL (≈ 1.38 µM), the MIC (strain 115242C) was 1 µg/mL (≈ 0.69 µM) and the MIC (strain 115263C) was 2 µg/mL (≈ 1.38 µM). The MIC (strain 115268C) was 1 µg/mL (≈ 0.69 µM), the MIC (strain 115273C) was 1 µg/mL (≈ 0.69 µM) and the MIC (strain 115295C) was 1 µg/mL (≈ 0.69 µM). It also gave an MIC (strain 115303C) of 1 µg/mL (≈ 0.69 µM), an MIC (strain 115370U) of 1 µg/mL (≈ 0.69 µM) and an MIC (strain 115427C) of 1 µg/mL (≈ 0.69 µM). For the same molecule, the MIC (strain 115445C) was 1 µg/mL (≈ 0.69 µM), the MIC (strain 115561C) was 1 µg/mL (≈ 0.69 µM) and the MIC (strain 115584D) was 2 µg/mL (≈ 1.38 µM). For the same molecule, the MIC (strain 115628T) was 2 µg/mL (≈ 1.38 µM), the MIC (strain 115690C) was 2 µg/mL (≈ 1.38 µM) and the MIC (strain 115691T) was 1 µg/mL (≈ 0.69 µM). The MIC (strain 115740E) was 1 µg/mL (≈ 0.69 µM), the MIC (strain 115810E) was 1 µg/mL (≈ 0.69 µM) and the MIC (strain 115903T) was 1 µg/mL (≈ 0.69 µM). The MIC (strain 116122T) was 1 µg/mL (≈ 0.69 µM), the MIC (strain E5-1029252) was 1 µg/mL (≈ 0.69 µM) and the MIC (strain E5-1029558) was 1 µg/mL (≈ 0.69 µM). The MIC (strain E5-1030440) was 1 µg/mL (≈ 0.69 µM), the MIC (strain E5-1030469) was 2 µg/mL (≈ 1.38 µM) and the MIC (strain E5-1030472) was 1 µg/mL (≈ 0.69 µM). For the same molecule, the MIC (strain E5-1030482) was 1 µg/mL (≈ 0.69 µM), the MIC (strain E5-1033076 (first listing, r204)) was 1 µg/mL (≈ 0.69 µM) and the MIC (strain E5-1033076 (second listing, r205)) was 1 µg/mL (≈ 0.69 µM). The MIC (strain E5-1033088) was 1 µg/mL (≈ 0.69 µM), the MIC (strain E5-1033091) was 1 µg/mL (≈ 0.69 µM) and the MIC (strain E5-1035277) was 1 µg/mL (≈ 0.69 µM). For the same molecule, the MIC (strain E5-1035284) was 1 µg/mL (≈ 0.69 µM), the MIC (strain E5-1035775) was 1 µg/mL (≈ 0.69 µM) and the MIC (strain E5-1035779) was 1 µg/mL (≈ 0.69 µM). It also gave an MIC (strain E5-1037958) of 1 µg/mL (≈ 0.69 µM), an MIC (strain E5-1037971) of 1 µg/mL (≈ 0.69 µM) and an MIC (strain E5-1038279) of 1 µg/mL (≈ 0.69 µM). For the same molecule, the MIC (strain E5-1038286) was 1 µg/mL (≈ 0.69 µM), the MIC (strain E5-1038294) was 1 µg/mL (≈ 0.69 µM) and the MIC (strain E5-1039684) was 1 µg/mL (≈ 0.69 µM). It also gave an MIC (strain E5-1039697) of 1 µg/mL (≈ 0.69 µM), an MIC (strain E5-1041977) of 2 µg/mL (≈ 1.38 µM) and an MIC (strain E5-1041979) of 1 µg/mL (≈ 0.69 µM). The MIC (strain E5-1041980) was 1 µg/mL (≈ 0.69 µM), the MIC (strain E5-1041987) was 1 µg/mL (≈ 0.69 µM) and the MIC (strain E5-1043184) was 1 µg/mL (≈ 0.69 µM). It also gave an MIC (strain E5-1043668) of 1 µg/mL (≈ 0.69 µM), an MIC (strain E5-1045179) of 1 µg/mL (≈ 0.69 µM) and an MIC (strain E5-1046019) of 1 µg/mL (≈ 0.69 µM). For the same molecule, the MIC (strain E5-1046020) was 1 µg/mL (≈ 0.69 µM), the MIC (strain E5-1046039) was 1 µg/mL (≈ 0.69 µM) and the MIC (strain E5-1046070) was 1 µg/mL (≈ 0.69 µM). For the same molecule, the MIC (strain E5-1046074) was 1 µg/mL (≈ 0.69 µM), the MIC (strain E5-1046085) was 2 µg/mL (≈ 1.38 µM) and the MIC (strain E5-1046096) was 1 µg/mL (≈ 0.69 µM). It also gave an MIC (strain E5-1046296) of 1 µg/mL (≈ 0.69 µM), an MIC (strain E5-1046297) of 1 µg/mL (≈ 0.69 µM) and an MIC (strain E5-1046298) of 1 µg/mL (≈ 0.69 µM). The MIC (strain E5-1046723) was 2 µg/mL (≈ 1.38 µM), the MIC (strain E5-1047585) was 1 µg/mL (≈ 0.69 µM) and the MIC (strain E5-1047606) was 1 µg/mL (≈ 0.69 µM). For the same molecule, the MIC (strain E5-1047924) was 1 µg/mL (≈ 0.69 µM), the MIC (strain E5-1048204) was 2 µg/mL (≈ 1.38 µM) and the MIC (strain E5-1048428) was 1 µg/mL (≈ 0.69 µM). The MIC (strain E5-1048654) was 1 µg/mL (≈ 0.69 µM), the MIC (strain E5-1048670) was 2 µg/mL (≈ 1.38 µM) and the MIC (strain EEFIC 01) was 1 µg/mL (≈ 0.69 µM). The MIC (strain EEFIC 02) was 1 µg/mL (≈ 0.69 µM), the MIC (strain K000772) was 1 µg/mL (≈ 0.69 µM) and the MIC (strain K000796) was 1 µg/mL (≈ 0.69 µM). For the same molecule, the MIC (strain K000863) was 1 µg/mL (≈ 0.69 µM), the MIC (strain K000864) was 1 µg/mL (≈ 0.69 µM) and the MIC (strain K000866) was 1 µg/mL (≈ 0.69 µM). It also gave an MIC (strain K115498) of 2 µg/mL (≈ 1.38 µM), an MIC (strain K115688) of 2 µg/mL (≈ 1.38 µM) and an MIC (strain K115689) of 2 µg/mL (≈ 1.38 µM). The MIC (strain R000019) was 2 µg/mL (≈ 1.38 µM), the MIC (strain R000020) was 1 µg/mL (≈ 0.69 µM) and the MIC (strain R000024) was 1 µg/mL (≈ 0.69 µM). It also gave an MIC (strain U115579) of 1 µg/mL (≈ 0.69 µM).
